Laboratory results: patent publication US11034685B2, “Aminopyridine derivatives as TAM family kinase inhibitors” (SignalChem Lifesciences Corporation, priority 2013, dated 2021)

Assays:
Type in all cases: biochemical
[1] = molecular target: T1, Recombinant human Tyro3 (455-end) (Homo sapiens, UniProt Q06418); assay: Kinase enzymatic activity assay ([33P]-ATP phosphate transfer), Tyro3; settings: inhibitory activity on Tyro3; class symbols
T1 construct: GST (N); made in house; host or cells: Sf9 insect cells (baculovirus)
T1 sequence (Q06418 455-890 limits assumed): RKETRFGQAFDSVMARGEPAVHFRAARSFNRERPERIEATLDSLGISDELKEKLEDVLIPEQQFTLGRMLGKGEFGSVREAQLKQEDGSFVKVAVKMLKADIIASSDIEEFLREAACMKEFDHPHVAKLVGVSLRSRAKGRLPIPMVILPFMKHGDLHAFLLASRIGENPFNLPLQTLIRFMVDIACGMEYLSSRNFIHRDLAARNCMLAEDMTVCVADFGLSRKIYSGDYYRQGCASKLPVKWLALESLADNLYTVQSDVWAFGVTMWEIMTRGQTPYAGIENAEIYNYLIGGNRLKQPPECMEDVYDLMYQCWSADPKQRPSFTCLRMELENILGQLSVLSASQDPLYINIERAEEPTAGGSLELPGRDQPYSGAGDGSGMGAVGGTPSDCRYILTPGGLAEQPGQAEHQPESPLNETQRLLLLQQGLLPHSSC
Method: (§1) Preparation of Active Recombinant Kinase Proteins:
(§2) Recombinant human Tyro3 (455-end, the gene accession number NM_006293), human Axl (473-end, the gene accession number NM_021913) and human Mer (578-872, the gene accession number NM_006343) were independently expressed by baculovirus in Sf9 insect cells using an N-terminal GST tag. The recombinant proteins were stored at −70° C. in a medium containing 50 mM Tris-HCl, pH 7.5, 150 mM NaCl, 10 mM glutathione, 0.1 mM EDTA, 0.25 mM DTT, 0.1 mM PMSF and 25% glycerol. The recombinant proteins were aliquoted into smaller quantities after centrifugation to avoid repeated handling and multiple freeze/thaw cycles for the most favorable performance.
(§3) Preparation of Assay Reagents:
(§4) Kinase Assay Buffer: This buffer solution consisted of the following components: 25 mM MOPS, pH 7.2, 12.5 mM β-glycerol-phosphate, 25 mM MgCl2, 5 mM EGTA, 2 mM EDTA and DTT 0.25 mM which was added prior to use.
(§5) Kinase Dilution Buffer: Kinase Assay Buffer was diluted at a 1:4 ratio (5× dilution) with distilled water.
(§6) [^33P]-ATP assay cocktail: In a designated radioactive working area, a 250 μM [^33P]-ATP assay cocktail was prepared by the addition of the following components: 150 μL of 10 mM ATP stock solution, 100 μL [^33P]-ATP (1 mci/100 μL), 5.75 mL of kinase assay buffer. This solution was stored in 1 mL aliquots at −20 OC.
(§7) ATP stock solution (10 mM): The ATP stock solution was prepared by dissolving 55 mg of ATP in 10 mL of kinase assay buffer. It was stored in 200 μL aliquots at −20° C.
(§8) Active Kinase Stock Solution: The active recombinant kinase protein (0.1 μg/μL) was diluted with Kinase Dilution Buffer and the activity was assayed using a serial dilution method. The specific activity is expressed in nmoL/min/mg.
(§9) Substrates: poly(4:1 glu:tyr) is the substrate used for each kinase Tyro3, Axl and Mer: The peptide substrate was dissolved in water to give the final concentration of 1 mg/mL.
(§10) Test compound solution: Test compound was dissolved in DMSO to obtain a 10 mM solution. The assay solution was prepared by adding 5 μL of this solution to […] of 10% DMSO/water to obtain the final concentration of 50 μM.
(§11) The enzymatic activity of all three kinases was determined as follows. Using a 96-well plate, the wells were divided into three categories: Blank wells, […] and Test wells. In Test wells, 5 μL of the test compound solution and 5 μL of the substrate solution were added. In Control wells, 5 μL of 10% DMSO/water and 5 μL of the substrate solution were added. In Blank wells, 10 μL of 10% DMSO/water was added. To each well was added 10 μL of Active Kinase Stock Solution to make up the volume in each well to 20 μL. All test samples, controls and blanks were run in duplicate. The reaction was initiated by the addition of 5 μL of [^33P]-ATP assay cocktail, bringing the final volume up to 25 μL in every well. The mixture was incubated at room temperature for 30 minutes. The reaction was terminated by transferring 10 μL of the reaction mixture into a Millipore MultiScreen filter plate (cat. number MSPHN6B50). The filter plate was washed in a 1% phosphoric acid solution with constant gentle shaking for 15 minutes and this step was repeated once. After the plate was dried in air, scintillation fluid was added to each well and the radioactivity in each well in CPM was counted by a Microbeta TriLux. The corrected CPM in each test well was determined by subtracting the average value of Blank well values. Percentage of inhibition of the kinase enzymatic activity by the test compound was determined using the following formula: […]
(§12) The IC50 values were determined in a similar way following a serial dilution of the test compound. The percentage of inhibition at each concentration was calculated following the above formula. The IC50 was estimated from the curve of % Inhibition against Concentration in log unit using Prism 5, version 5.01.

[2] = molecular target: T2, human Axl (473-end) (Homo sapiens, UniProt P30530); assay: Kinase enzymatic activity assay ([33P]-ATP phosphate transfer), Axl; settings: inhibitory activity on Axl; class symbols
T2 construct: GST (N); made in house; host or cells: Sf9 insect cells (baculovirus)
T2 sequence (P30530 473-894 limits assumed): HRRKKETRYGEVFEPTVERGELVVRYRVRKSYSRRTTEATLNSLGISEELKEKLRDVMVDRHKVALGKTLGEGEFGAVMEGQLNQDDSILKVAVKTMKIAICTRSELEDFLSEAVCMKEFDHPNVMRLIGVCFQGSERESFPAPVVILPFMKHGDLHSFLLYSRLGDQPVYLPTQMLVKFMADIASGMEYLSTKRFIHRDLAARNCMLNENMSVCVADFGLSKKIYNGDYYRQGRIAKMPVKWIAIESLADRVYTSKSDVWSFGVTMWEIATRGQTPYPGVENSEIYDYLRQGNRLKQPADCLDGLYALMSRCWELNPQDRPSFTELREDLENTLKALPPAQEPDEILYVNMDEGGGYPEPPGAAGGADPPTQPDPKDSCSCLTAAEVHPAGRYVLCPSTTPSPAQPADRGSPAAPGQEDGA
Method: as §1, §2, §3, §4, §5, §6, §7, §8, §9, §10, §11, §12

[3] = molecular target: T3, human Mer (578-872) (Homo sapiens, UniProt Q12866); assay: Kinase enzymatic activity assay ([33P]-ATP phosphate transfer), Mer; settings: inhibitory activity on Mer; class symbols
T3 construct: GST (N); made in house; host or cells: Sf9 insect cells (baculovirus)
T3 sequence (Q12866 578-872): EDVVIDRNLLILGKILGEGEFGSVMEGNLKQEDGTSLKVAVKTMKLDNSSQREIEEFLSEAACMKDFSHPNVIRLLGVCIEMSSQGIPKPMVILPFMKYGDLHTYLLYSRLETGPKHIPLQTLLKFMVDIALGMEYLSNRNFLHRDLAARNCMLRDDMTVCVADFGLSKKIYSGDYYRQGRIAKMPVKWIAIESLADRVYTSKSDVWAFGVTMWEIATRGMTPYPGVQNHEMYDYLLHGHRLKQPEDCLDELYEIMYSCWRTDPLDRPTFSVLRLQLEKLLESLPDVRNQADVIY
Method: as §1, §2, §3, §4, §5, §6, §7, §8, §9, §10, §11, §12

IC50 [1] [nM] | IC50 [2] [nM] | IC50 [3] [nM] | Structure (SMILES)
< 500 | < 500 | 1000 to 10000 | Nc1ncc(-c2cn[nH]c2)cc1-c1nnc(-c2cc(F)ccc2F)o1 [3-(5-(2,5-difluorophenyl)-1,3,4-oxadiazol-2-yl)-5-(1H-pyrazol-4-yl)pyridin-2-amine]
1000 to 10000 | 1000 to 10000 | 1000 to 10000 | Nc1ncc(-c2cnn(C3CCCCC3)c2)cc1-c1ccc(-c2ccccc2)o1 [5-(1-cyclohexyl-1H-pyrazol-4-yl)-3-(5-phenylfuran-2-yl)pyridin-2-amine]
1000 to 10000 | < 500 | 1000 to 10000 | CC(C)(C)OC(=O)N1CCC(n2cc(-c3cnc(N)c(-c4nnc(Cc5ccccc5)o4)c3)cn2)CC1 [tert-butyl 4-(4-(6-amino-5-(5-benzyl-1,3,4-oxadiazol-2-yl)pyridin-3-yl)-1H-pyrazol-1-yl)piperidine-1-carboxylate]
1000 to 10000 | 1000 to 10000 | 1000 to 10000 | Nc1ncc(-c2cnn(C3CCOCC3)c2)cc1-c1ccc(-c2ccccc2)o1 [3-(5-phenylfuran-2-yl)-5-(1-(tetrahydro-2H-pyran-4-yl)-1H-pyrazol-4-yl)pyridin-2-amine]
< 500 | < 500 | 1000 to 10000 | Nc1ncc(-c2cnn(C3CCN(C(=O)Cc4ccccc4)CC3)c2)cc1-c1ncc(-c2ccc(Cl)cc2)o1 [1-(4-(4-(6-amino-5-(5-(4-chlorophenyl)oxazol-2-yl)pyridin-3-yl)-1H-pyrazol-1-yl)piperidin-1-yl)-2-phenylethanone]
< 500 | < 500 | < 500 | CN1CCC(n2cc(-c3cnc(N)c(-c4nc(-c5ccccc5)no4)c3)cn2)CC1 [5-(1-(1-methylpiperidin-4-yl)-1H-pyrazol-4-yl)-3-(3-phenyl-1,2,4-oxadiazol-5-yl)pyridin-2-amine]
< 500 | < 500 | > 10000 | Nc1ncc(-c2cnn(C3CCOCC3)c2)cc1-c1ncc(-c2ccccc2)o1 [3-(5-phenyloxazol-2-yl)-5-(1-(tetrahydro-2H-pyran-4-yl)-1H-pyrazol-4-yl)pyridin-2-amine]
1000 to 10000 | 1000 to 10000 | 1000 to 10000 | Nc1ncc(-c2cnn(C3CCN(C(=O)C4CC4)CC3)c2)cc1-c1nc(-c2ccccc2)no1 [(4-(4-(6-amino-5-(3-phenyl-1,2,4-oxadiazol-5-yl)pyridin-3-yl)-1H-pyrazol-1-yl)piperidin-1-yl)(cyclopropyl)methanone]
< 500 | < 500 | < 500 | Nc1ncc(-c2ccn(C3CCNCC3)c2)cc1-c1nnc(-c2c(Cl)cccc2Cl)o1 [3-(5-(2,6-dichlorophenyl)-1,3,4-oxadiazol-2-yl)-5-(1-(piperidin-4-yl)-1H-pyrrol-3-yl)pyridin-2-amine]
500 to 1000 | < 500 | 1000 to 10000 | CC(C)(C)OC(=O)N1CCC(n2cc(-c3cnc(N)c(-c4ncc(-c5ccccc5)o4)c3)cn2)CC1 [tert-butyl 4-(4-(6-amino-5-(5-phenyloxazol-2-yl)pyridin-3-yl)-1H-pyrazol-1-yl)piperidine-1-carboxylate]
< 500 | < 500 | 1000 to 10000 | Nc1ncc(-c2cnn(C3CCN(C(=O)C4CC4)CC3)c2)cc1-c1nnc(-c2c(Cl)cccc2Cl)o1 [(4-(4-(6-amino-5-(5-(2,6-dichlorophenyl)-1,3,4-oxadiazol-2-yl)pyridin-3-yl)-1H-pyrazol-1-yl)piperidin-1-yl)(cyclopropyl)methanone]
1000 to 10000 | 1000 to 10000 | > 10000 | Nc1ncc(-c2cnn(C3CCCCC3)c2)cc1-c1ncc(-c2ccccc2)o1 [5-(1-cyclohexyl-1H-pyrazol-4-yl)-3-(5-phenyloxazol-2-yl)pyridin-2-amine]
< 500 | < 500 | 500 to 1000 | Nc1ncc(-c2cn[nH]c2)cc1-c1nnc(-c2ccc(F)cc2)o1 [3-(5-(4-fluorophenyl)-1,3,4-oxadiazol-2-yl)-5-(1H-pyrazol-4-yl)pyridin-2-amine]
< 500 | < 500 | – | Nc1ncc(-c2cnn(C3CCNCC3)c2)cc1-c1nnc(-c2cc(F)ccc2F)o1 [3-(5-(2,5-difluorophenyl)-1,3,4-oxadiazol-2-yl)-5-(1-(piperidin-4-yl)-1H-pyrazol-4-yl)pyridin-2-amine]
1000 to 10000 | 500 to 1000 | < 500 | CC(C)(C)OC(=O)N1CCC(n2cc(-c3cnc(N)c(-c4nnc(-c5ccc(C(C)(C)C)cc5)o4)c3)cn2)CC1
< 500 | < 500 | – | Nc1ncc(-c2cnn(C3CCNCC3)c2)cc1-c1nnc(-c2c(Cl)cccc2Cl)o1 [3-(5-(2,6-dichlorophenyl)-1,3,4-oxadiazol-2-yl)-5-(1-(piperidin-4-yl)-1H-pyrazol-4-yl)pyridin-2-amine]
< 500 | < 500 | 1000 to 10000 | Nc1ncc(-c2cnn(C3CCOCC3)c2)cc1-c1cc(-c2ccccc2)on1 [3-(5-phenylisoxazol-3-yl)-5-(1-(tetrahydro-2H-pyran-4-yl)-1H-pyrazol-4-yl)pyridin-2-amine]
1000 to 10000 | 500 to 1000 | – | CC(C)(C)OC(=O)N1CCC(n2cc(-c3cnc(N)c(-c4nnc(-c5c(Cl)cccc5Cl)o4)c3)cn2)CC1 [tert-butyl 4-(4-(6-amino-5-(5-(2,6-dichlorophenyl)-1,3,4-oxadiazol-2-yl)pyridin-3-yl)-1H-pyrazol-1-yl)piperidine-1-carboxylate]
